Where two headings read alike, the source gives them in different places.
Assays:
HCT-116 WT cell line = assay: Anti-proliferative IC50 assay (SRB); type: cell-based, human; details: for IC50: Homo sapiens, 4 h exposure
From the text: (§1) The HCT-116 cell line was purchased from the American Type Culture Collection (Manassas, VA). A POR-overexpressing clone (POR-R) was generated by transfecting the parental cell line with a pBRP expression vector encoding an N-terminal truncated soluble version of the human POR gene ([Foehrenbacher et al., 2013a]; [Guise et al., 2020]). Ectopic expression is driven by the human cytomegalovirus (CMV) major immediate-early promoter. Downstream of POR is a human elongation factor-1 alpha (EF-1 alpha) promoter, which drives expression of mRuby and the puromycin resistance gene pac (puromycin N-acetyltransferase). A POR-null clone (PORG-ko) was generated as previously described ([Su et al., 2013]). POR-null clones were then transfected with a pEGFP-N1 plasmid encoding enhanced green fluorescent protein (EGFP) and geneticin resistance to permit identification upon co-culture ([Hong et al., 2018b]). Cell lines were maintained by weekly subculture in T-flasks containing alpha minimal essential medium (αMEM) with 5% foetal bovine serum (FBS) for a maximum of 24 passages or 90 days (whichever came first). The culture medium was further supplemented with 1 mg/ml geneticin or 2 µM puromycin for the routine maintenance of the POR-null and POR-overexpressing clones respectively. All cultures were re-established from STR-authenticated, mycoplasma negative frozen stocks.
(§2) Cells (700–1,000 per well) were seeded with 100 µl culture medium into 96-well plates and left to attach for 2 h in a humidified 37°C incubator. Compounds were prepared in culture medium and serially diluted (1:3) in the well volume. Plates were returned to a humidified 37°C incubator for the duration of the drug exposure (4 h). Aerobic experiments were performed under standard tissue culture conditions (21% O2), and the anoxic experiments were performed in parallel in a 5% H2/Pd catalyst anaerobic chamber (Shellab Bactron, Sheldon manufacturing Inc., Cornelius, OR) using pre-equilibrated media and plasticware. All anoxia experiments were conducted using a catalyst-scrubbed anaerobic chamber, unless otherwise specified, with gas oxygen measurements of <1 ppm O2. Cells were then washed three times and left to grow for 96 h before cell density determination using a sulforhodamine B (SRB) assay ([Vichai and Kirtikara, 2006]). To this end, the cells were fixed by layering 50 µl of trichloroacetic acid (40% w/v in MilliQ water) on top of the culture media (150 µl) in each well for 1 h at 4°C. Plates were rinsed under running tap water and stained with 50 µl of SRB (0.4% w/v in MilliQ water containing 1% v/v acetic acid) for 30 min at room temperature. Plates were rapidly destained by rinsing three times in tap water containing 1% (v/v) acetic acid. The stain was solubilized by adding 100 µl of 10 mM unbuffered Tris base to each well with gentle rocking for 1 h. Plates were read on a Biotek ELx808 Absorbance Microplate Reader at 490 nm using KC4 software. The IC50 value (concentration required to reduce staining to 50% of the untreated control on the same plate) for each compound was determined by interpolation using a 4-parameter logistic regression model.

[1] = system: POR-R cell line (POR-overexpressing HCT-116); assay: Anti-proliferative IC50 assay (SRB); type: cell-based, human; details: for IC50: Homo sapiens, HCT-116, 4 h exposure
From the text: as §1, §2

[2] = system: PORko-G cell line (POR-knockout HCT-116); assay: Anti-proliferative IC50 assay (SRB); type: cell-based, human; details: for IC50: Homo sapiens, HCT-116, 4 h exposure
From the text: as §1, §2

[3] = system: spheroid co-cultures of POR-R activator and PORko-G target cells; assay: Spheroid growth delay assay; type: cell-based; details: Homo sapiens, 4 h, 4 h exposure, anoxic, read-out: IC50 for inhibition of spheroid growth
Procedure: Spheroid cultures were established by seeding 3 x 10^3 cells with 100 µl medium into ultra-low attachment, round bottom 96-well plates (Corning Inc, Corning, NY). Plates were briefly centrifuged (200 g, 5 min) to facilitate cell aggregation and grown in a standard incubator (37°C, 21% O2, 5% CO2) for 4 days before experiments. The culture medium was then aspirated, and the established spheroids taken into a H2/Pd-catalyst anaerobic chamber. Spheroids were washed three times with anoxia pre-equilibrated medium and left to settle for 1 h in a humidified 37°C incubator. Spheroids were removed from the anaerobic chamber after a 4 h drug exposure and washed three times with fresh culture medium. The growth of representative spheroids was monitored for 10 days using a published method of image analysis for volume determination ([Mao et al., 2018]). The remainder were enzymatically dissociated and plated at serial dilutions in 6-well plates containing 2 µM puromycin or 1 mg/ml geneticin for positive selection of POR-R and PORko-G cells, respectively. Colonies were visualized after 10 days of drug-free proliferation by staining with methylene blue (2 g/L in 50% aqueous ethanol) for 30 min. The number of colonies with at least 50 cells was manually counted to determine the plating efficiency. The surviving fraction was determined as the ratio of the plating efficiency of treated cells to that of the controls.

[4] = system: POR-overexpressing HCT-116 cells (POR-R) monolayer; assay: Cellular uptake studies / cellular PK model; type: in vitro ADME, human; details: aerobic 21% O2, Co range 0.3–30 µM
[5] = ref Van Der Wiel et al., 2021; cited from earlier work
[6] = system: POR-overexpressing HCT-116 cells (POR-R) monolayer; details: cited from earlier work
[7] = anoxic <1 ppm O2, 96 h drug-free proliferation, read-out: Anoxic IC50 (anti-proliferative)
[8] = normoxic 21% O2, 96 h drug-free proliferation, read-out: Aerobic IC50 (anti-proliferative)
[9] = Table 1 footnote d: assumed equivalent to measured metabolites or derived from published estimates for PR-104A metabolites, ref Foehrenbacher et al., 2013a, Hong et al., 2018b
[10] = Table S3, fixed to fitted values for downstream metabolites of PR-104 ('metabolite 2'), ref (2,3)

SMILES: CCN1CCN(C(=O)c2cc(N(CCBr)CCOS(C)(=O)=O)c(S(C)(=O)=O)cc2[N+](=O)[O-])CC1 [CP-506, 2-[(2-bromoethyl)-5-[(4-ethyl-1-piperazinyl)carbonyl]-2-(methylsulfonyl)-4-nitroanilino]ethyl methanesulfonate]
- IC50 (HCT-116 WT cell line; [7]): 12.8 ± 3.7 µM
- IC50 (HCT-116 WT cell line; [8]): 257 ± 37 µM
- Fold lower IC50 under anoxic vs aerobic conditions (HCT-116 WT cell line; anti-proliferative assay): 20.1 fold
- IC50 [1, 7]: 2.5 ± 0.3 µM
- IC50 [1, 8]: 120 ± 13 µM
- Fold lower IC50 under anoxic vs aerobic conditions ([1]; anti-proliferative assay): 48.6 fold
- IC50 ([2]; PORko-G, anoxic <1 ppm O2, 96 h drug-free proliferation, read-out: Anoxic IC50 (anti-proliferative)): 33.1 ± 5.6 µM
- IC50 ([2]; PORko-G, normoxic 21% O2, 96 h drug-free proliferation, read-out: Aerobic IC50 (anti-proliferative)): 240 ± 26 µM
- Fold lower IC50 under anoxic vs aerobic conditions ([2]; PORko-G, anti-proliferative assay): 7.3 fold
- Differential in anoxic sensitivity between PORko-G and POR-R cell lines ([2]; anti-proliferative assay, anoxia): 13 fold
- IC50 ([3]; 0% activator cells): > 40 µM
- IC50 ([3]; 10% activator cells): 13.6 µM
- IC50 ([3]; 50% activator cells): 5.6 µM
- IC50 ([3]; 100% activator cells): 2.4 µM
- Steady-state Ci/Ce ratio (cell uptake) [4]: 50 fold
- O2 concentration above which prodrug activation and cytotoxicity are completely inhibited [5]: above 1 µM O2

SMILES: CCN1CCN(C(=O)c2cc(N(CCCl)CCCl)c(S(C)(=O)=O)cc2N)CC1 [CP-506M-Cl2, (2-Amino-5-(bis(2-chloroethyl)amino)-4-(methylsulfonyl)phenyl)(4-ethylpiperazin-1-yl)methanone]
- k in: rate constant for transfer from the extracellular to intracellular volume [6, 9]: 0.9 ^d min^−1
- k out: rate constant for transfer from the intracellular to extracellular volume [6, 9]: 0.3 ^d min^−1
- T1/2: time required to reduce the concentration to half its initial value [6, 10]: 6.6 min
- kin: rate of transfer from the extracellular to the intracellular compartment [6, 10]: 0.9 min⁻¹
- kout: rate of transfer from the intracellular to the extracellular compartment [6, 10]: 0.3 min⁻¹
